Laboratory results from patent US8178530B2, “Imidazolopyrazine compounds useful for the treatment of degenerative and inflammatory diseases” (Janssen Pharmaceutica NV, priority 2006, dated 2012).

Columns and labels:
[1] = tested on: MMP1 expression by SFs; assay: 'MMP assay': MMP1 expression by 'complex trigger' activated synovial fibroblasts (MMP1 ELISA); format: cell-based, human; conditions: Homo sapiens, Fibroblast, RASFs, 48 hrs
[2] = target: T1, MAPKAPK5 (Homo sapiens, UniProt Q8IW41); assay: MAPKAP-K5 assay (FlashPlate, 33P-ATP); format: biochemical; conditions: 0.6 μM ATP, 30 minutes at room temperature
T1 construct: 1 mU MAPKAP-K5
T1 sequence (Q8IW41 1-473): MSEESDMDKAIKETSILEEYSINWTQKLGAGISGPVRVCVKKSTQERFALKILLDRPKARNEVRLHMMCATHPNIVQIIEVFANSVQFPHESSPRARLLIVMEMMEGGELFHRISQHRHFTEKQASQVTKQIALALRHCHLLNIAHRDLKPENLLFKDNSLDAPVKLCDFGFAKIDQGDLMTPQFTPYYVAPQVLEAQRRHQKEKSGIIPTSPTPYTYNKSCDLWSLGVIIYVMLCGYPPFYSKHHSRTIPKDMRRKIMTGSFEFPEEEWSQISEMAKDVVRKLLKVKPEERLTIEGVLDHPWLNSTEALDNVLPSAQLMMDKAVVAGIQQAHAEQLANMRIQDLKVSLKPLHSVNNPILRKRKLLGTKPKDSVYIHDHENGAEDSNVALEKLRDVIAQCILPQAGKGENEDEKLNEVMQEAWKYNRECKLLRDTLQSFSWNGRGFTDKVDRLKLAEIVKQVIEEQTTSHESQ
Method: 3 μM MAPKAP-K5 peptide substrate

IC50 [2]	Structure (SMILES)	EC50 [1]
> 1000 nM	NC(=O)c1cnc(-c2cnc(Nc3ccc(N4CCOCC4)cc3)c3nccn23)s1 [Compound 158, 2-[8-(4-Morpholin-4-yl-phenylamino)-imidazo[1,2-a]pyrazin-5-yl]-thiazole-5-carboxylic acid amide]	> 1000 nM
101 to 500 nM	CCN(CC)CCNS(=O)(=O)c1ccc(Nc2ncc(-c3cn[nH]c3)n3ccnc23)cc1 [Compound 69, N-(2-Diethylaminoethyl)-4-[5-(1H-pyrazol-4-yl)imidazo[1,2-a]pyrazin-8-ylamino]benzenesulfonamide]	> 1000 nM
> 1000 nM	Cn1nnc(-c2ccc(Nc3ncc(-c4cn[nH]c4)n4ccnc34)cc2)n1 [Compound 169, [4-(2-Methyl-2H-tetrazol-5-yl)-phenyl]-[5-(1H-pyrazol-4-yl)-imidazo[1,2-a]pyrazin-8-yl]-amine]	101 to 500 nM
101 to 500 nM	CN1CCN(c2ccc(Nc3ncc(-c4ccc(C(N)=O)s4)n4ccnc34)cc2)CC1 [Compound 127, (4-(4-Methylpiperazin-1-yl)phenyl)-[5-(2-carboxamido-5-thienyl)imidazo[1,2-a]pyrazin-8-yl]amine]	101 to 500 nM
101 to 500 nM	O=C(NCCN1CCOCC1)c1ccc(Nc2ncc(-c3cn[nH]c3)n3ccnc23)cc1 [Compound 53]	> 1000 nM
> 1000 nM	CN1CCN(c2ccc(Nc3ncc(-c4ccc(C(N)=O)cc4)n4ccnc34)cc2F)CC1 [Compound 171, 4-{8-[3-Fluoro-4-(4-methyl-piperazin-1-yl)-phenylamino]-imidazo[1,2-a]pyrazin-5-yl}-benzamide]	101 to 500 nM
101 to 500 nM	CN1CCN(c2ccc(Nc3ncc(-c4cc(F)c(C(N)=O)c(F)c4)n4ccnc34)cc2)CC1 [Compound 140]	> 1000 nM
> 1000 nM	NC(=O)c1ccc(-c2cnc(Nc3ccc(-n4ccnc4)cc3)c3nccn23)cc1 [Compound 167]	> 1000 nM
> 1000 nM	CN1CCN(c2ccc(Nc3ncc(-c4ccc(C(N)=O)cc4)n4ccnc34)cc2)CC1 [Compound 143]	501 to 1000 nM
501 to 1000 nM	c1cn2c(-c3cn[nH]c3)cnc(Nc3ccc(OCCN4CCOCC4)cc3)c2n1 [Compound 150, [4-(2-Morpholin-4-yl-ethoxy)-phenyl]-[5-(1H-pyrazol-4-yl)-imidazo[1,2-a]pyrazin-8-yl]-amine]	> 1000 nM
> 1000 nM	CN1CCN(c2ccc(Nc3ncc(-c4ccc(C(N)=O)c(Cl)c4)n4ccnc34)cc2)CC1 [Compound 124]	> 1000 nM
> 1000 nM	CN1CCC(Oc2ccc(Nc3ncc(-c4ccc(C(N)=O)c(F)c4)n4ccnc34)cc2)CC1 [Compound 149]	> 1000 nM
> 1000 nM	CCN(CC)CCNS(=O)(=O)c1ccc(Nc2ncc(-c3ccc(C(N)=O)cc3)n3ccnc23)cc1 [Compound 98]	501 to 1000 nM
101 to 500 nM	NS(=O)(=O)c1ccc(Nc2ncc(-c3cn[nH]c3)n3ccnc23)cc1 [Compound 36]	> 1000 nM
501 to 1000 nM	O=C(c1ccc(Nc2ncc(-c3cn[nH]c3)n3ccnc23)cc1)N1CCOCC1 [Compound 45]	> 1000 nM
> 1000 nM	O=C(Nc1ccccc1)c1ccc(Nc2ncc(-c3cn[nH]c3)n3ccnc23)cc1 [Compound 41]	> 1000 nM
101 to 500 nM	c1cn2c(-c3cn[nH]c3C3CC3)cnc(Nc3ccc(N4CCOCC4)cc3)c2n1 [Compound 160, [5-(5-Cyclopropyl-1H-pyrazol-4-yl)-imidazo[1,2-a]pyrazin-8-yl]-(4-morpholin-4-yl-phenyl)-amine]	> 1000 nM
501 to 1000 nM	CCN(CC)CCNC(=O)c1ccc(Nc2ncc(-c3cn[nH]c3)n3ccnc23)cc1F [Compound 82]	> 1000 nM

IC50 [2]	Structure (SMILES)	EC50 [1]
> 1000 nM	CC(C)N1CCN(c2ccc(Nc3ncc(-c4ccc(C(N)=O)cc4)n4ccnc34)cc2)CC1 [Compound 142]	501 to 1000 nM
> 1000 nM	CN1CCC(COc2ccc(Nc3ncc(-c4ccc(C(N)=O)c(F)c4)n4ccnc34)cc2)CC1 [Compound 159, 2-Fluoro-4-{8-[4-(1-methyl-piperidin-4-ylmethoxy)-phenylamino]-imidazo[1,2-a]pyrazin-5-yl}-benzamide]	101 to 500 nM
> 1000 nM	CN1CCN(c2ccc(Nc3ncc(-c4cscn4)n4ccnc34)cc2)CC1 [Compound 138]	> 1000 nM
501 to 1000 nM	Cc1[nH]ncc1-c1cnc(Nc2ccc(N3CCOCC3)cc2)c2nccn12 [Compound 176]	> 1000 nM
> 1000 nM	NC(=O)c1ccc(-c2cnc(Nc3ccc(OCCN4CCOCC4)cc3)c3nccn23)cc1F [Compound 146]	501 to 1000 nM
> 1000 nM	CN1CCN(c2ccc(Nc3ncc(-c4cn[nH]c4)n4ccnc34)cc2)CC1 [Compound 14]	> 1000 nM
> 1000 nM	Cc1cc(C(N)=O)ccc1-c1cnc(Nc2ccc(N3CCN(C)CC3)cc2)c2nccn12 [Compound 120]	> 1000 nM
101 to 500 nM	O=C1NCc2cc(-c3cnc(Nc4ccc(N5CCOCC5)cc4)c4nccn34)sc21 [Compound 198, 2-[8-(4-Morpholin-4-yl-phenylamino)-imidazo[1,2-a]pyrazin-5-yl]-4,5-dihydro-thieno[2,3-c]pyrrol-6-one]	101 to 500 nM
> 1000 nM	CN1CCN(c2ccc(Nc3ncc(-c4cc(C(N)=O)cs4)n4ccnc34)cc2)CC1 [Compound 145, 5-{8-[4-(4-Methyl-piperazin-1-yl)-phenylamino]-imidazo[1,2-a]pyrazin-5-yl}-thiophene-3-carboxylic acid amide]	501 to 1000 nM
> 1000 nM	CNC(=O)c1ccc(-c2cnc(Nc3ccc(N4CCN(C)CC4)cc3)c3nccn23)cc1 [Compound 116]	> 1000 nM
101 to 500 nM	CN1CCN(c2ccc(Nc3ncc(-c4csc(C(N)=O)c4)n4ccnc34)cc2)CC1 [Compound 118]	> 1000 nM
501 to 1000 nM	O=C(NCc1ccc(O)cc1)c1ccc(Nc2ncc(-c3cn[nH]c3)n3ccnc23)cc1 [Compound 90, N-(4-Hydroxybenzyl)-4-[5-(1H-pyrazol-4-yl)imidazo[1,2-a]pyrazin-8-ylamino]benzamide]	101 to 500 nM
101 to 500 nM	C[C@@H]1CN(C)[C@@H](C)CN1c1ccc(Nc2ncc(-c3ccc(C(N)=O)cc3)n3ccnc23)cc1 [Compound 137]	101 to 500 nM
> 1000 nM	CN(C)Cc1cn(-c2ccc(Nc3ncc(-c4ccc(C(N)=O)cc4)n4ccnc34)cc2)nn1 [Compound 166, 4-{8-[4-(4-Dimethylaminomethyl-[1,2,3]triazol-1-yl)-phenylamino]-imidazo[1,2-a]pyrazin-5-yl}-benzamide]	> 1000 nM
> 1000 nM	Cn1cnnc1-c1ccc(Nc2ncc(-c3ccc(C(N)=O)cc3)n3ccnc23)cc1 [Compound 141]	501 to 1000 nM
> 1000 nM	C[C@@H]1CN(c2ccc(Nc3ncc(-c4ccc(C(N)=O)cc4)n4ccnc34)cc2)C[C@H](C)N1C [Compound 155]	101 to 500 nM
> 1000 nM	CN1CCN(c2ccc(Nc3ncc(-c4ccc(C(N)=O)nc4)n4ccnc34)cc2)CC1 [Compound 129, 5-{8-[4-(4-Methyl-piperazin-1-yl)-phenylamino]-imidazo[1,2-a]pyrazin-5-yl}-pyridine-2-carboxylic acid amide]	> 1000 nM
